Assay results published in US10267797B2, “Detection of oral microbial virulence factors” (The Procter & Gamble Company, priority 2015, dated 2019).
Like-named read-outs stand apart in the source and are kept apart here.

How the values were obtained:
[1] = tested on: THP-1 cells stimulated by P. gingivalis LPS 1690; test: Inhibition of LPS stimulated cytokine production in THP-1 cells; type: cell-based, human; conditions: 0.3 mM to 9 mM citrulline; 300 ng/ml LPS; 24 hours; IL-6, TNF-α, IL-12p70, IL-10, IL-2, IFN-r, IL-1β (FIG. 26)
Protocol: Citrulline was purchased from Sigma-Aldrich (St. Louis, Mo.). THP1-Dual™ cells were purchased from Invivogen (San Diego, Calif.). Cells were cultured following the manufacturer's instruction, as described in EXAMPLE 11. For treatment, 0.3 mM to 9 mM of citrulline were first added to the culture medium. […] After 24 hours of treatment, media was collected and analyzed for cytokine production using 9-plex kit (Meso Scale Diagnostics Rockville, Md.).

TLR2 = TLR2 (Homo sapiens, UniProt O60603); test: TLR2-SEAP reporter gene assay in HEK 293T cells; conditions: P. gingivalis LPS; stannous 1000 uM (FIG. 4)
From the text: The cell line is named here as TLR2-SEAP. The reporter gene encodes a secreted enzyme, called embryonic alkaline phosphatase or SEAP. The SEAP reporter is placed under the control of the interferon-β minimal promoter fused to five NFkB and AP-1-binding sites. Furthermore, a CD14 co-receptor gene was transfected into the reporter gene cells expressing TLR2, as CD14 has been identified as a co-receptor for TLR2 ligands to enhance the TLR response. The CD14 co-receptor is needed to transfer LTA to TLR2 receptors. The recombinant TLR2 binds its ligand, or distinct pathogen-associated molecule, initiates a chain of responses, leading to recruitment of NFkB and AP1 transcription factors to the reporter gene promoter, which induce expression of SEAP.
For treatment with LTA, wells of a 96-well plate were seeded with 10,000 cells/well in 100 μL of growth medium. […] On day 4, medium (100 μL) was changed to DMEM medium without fetal calf serum. […] Samples were taken 24 hours later, following addition of samples. Expression of the reporter gene (SEAP) was quantified with a commercially available kit (SEAP Reporter Gene Assay of Cayman Chemical Co., Ann Arbor, Mich.).

TLR4 = molecular target: T1, TLR4 (Homo sapiens, UniProt O00206+Q9Y6Y9); type: cell-based; conditions: for reduction of P. gingivalis LPS activation on the TLR4 reporter system: P. gingivalis LPS 500 ng/ml
T1 construct: host or cells: HEK 293T (HEK-Blue hTLR4)
From the text: The cell line is named here as TLR4-SEAP. The reporter gene encodes a secreted enzyme, called embryonic alkaline phosphatase or SEAP. The SEAP reporter is placed under the control of the interferon-β minimal promoter fused to five NFkB and AP-1-binding sites. Furthermore, the TLR4-SEAP cell line also contains a CD14 co-receptor gene, which is needed to transfer LPS to TLR4 receptors. The recombinant TLR binds its ligand, or distinct pathogen-associated molecule, initiates a chain of responses, leading to recruitment of NFkB and AP1 transcription factors to the reporter gene promoter, which induce expression of SEAP.
For treatment, wells of a 96-well plate were seeded with 10,000 cells/well in 100 μL of growth medium. […] On day 4, medium was changed to assay medium (90 μl), which is the DMEM medium without fetal calf serum. […] 10 μl of the bacteria, LPS and culture medium of bacterial growth were added to the TLR4-SEAP cells. Samples were taken 24 hours later, following addition of LPS, bacteria, and culture medium. Expression of the reporter gene (SEAP) was quantified with a commercially available kit (SEAP Reporter Gene Assay of Cayman Chemical Co., Ann Arbor, Mich.).
EC50 was calculated using GraphPad Prism software (GraphPad Software, La Jolla, Calif.).
Tests were conducted to understand whether stannous fluoride could reduce LPS's ability to trigger proinflammatory responses in host cells.

E. coli LPS = conditions: 0.63 mM; E. coli LPS 15 μg/ml

T1 sequence (Q9Y6Y9 17-160): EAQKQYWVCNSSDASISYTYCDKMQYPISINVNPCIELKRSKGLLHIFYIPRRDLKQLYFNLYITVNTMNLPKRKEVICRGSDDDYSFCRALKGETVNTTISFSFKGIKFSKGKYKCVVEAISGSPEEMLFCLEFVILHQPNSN
T1 sequence (O00206 24-839): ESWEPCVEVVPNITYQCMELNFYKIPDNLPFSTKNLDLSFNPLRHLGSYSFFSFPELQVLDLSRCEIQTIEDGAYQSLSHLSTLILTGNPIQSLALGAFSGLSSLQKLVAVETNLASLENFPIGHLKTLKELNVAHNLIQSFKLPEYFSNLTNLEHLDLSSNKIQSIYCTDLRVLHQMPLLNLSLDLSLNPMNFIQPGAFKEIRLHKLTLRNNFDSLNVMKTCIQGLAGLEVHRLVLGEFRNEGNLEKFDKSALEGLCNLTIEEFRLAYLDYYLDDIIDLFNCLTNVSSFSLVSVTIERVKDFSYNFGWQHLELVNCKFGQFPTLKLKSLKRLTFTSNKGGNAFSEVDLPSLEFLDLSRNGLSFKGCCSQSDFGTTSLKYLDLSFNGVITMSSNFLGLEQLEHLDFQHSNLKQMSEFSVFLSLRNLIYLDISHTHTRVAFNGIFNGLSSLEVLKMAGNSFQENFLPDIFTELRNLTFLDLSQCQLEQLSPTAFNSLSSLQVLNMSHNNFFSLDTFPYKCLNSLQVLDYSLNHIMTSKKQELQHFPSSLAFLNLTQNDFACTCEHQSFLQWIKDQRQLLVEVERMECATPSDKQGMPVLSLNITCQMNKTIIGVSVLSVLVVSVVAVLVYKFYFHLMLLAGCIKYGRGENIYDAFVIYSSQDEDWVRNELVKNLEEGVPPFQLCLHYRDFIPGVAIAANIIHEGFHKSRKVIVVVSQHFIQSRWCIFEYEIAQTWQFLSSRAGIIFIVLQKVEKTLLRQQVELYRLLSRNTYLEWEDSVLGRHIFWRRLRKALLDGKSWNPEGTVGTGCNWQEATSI
Sequence of TLR2 (O60603 21-784): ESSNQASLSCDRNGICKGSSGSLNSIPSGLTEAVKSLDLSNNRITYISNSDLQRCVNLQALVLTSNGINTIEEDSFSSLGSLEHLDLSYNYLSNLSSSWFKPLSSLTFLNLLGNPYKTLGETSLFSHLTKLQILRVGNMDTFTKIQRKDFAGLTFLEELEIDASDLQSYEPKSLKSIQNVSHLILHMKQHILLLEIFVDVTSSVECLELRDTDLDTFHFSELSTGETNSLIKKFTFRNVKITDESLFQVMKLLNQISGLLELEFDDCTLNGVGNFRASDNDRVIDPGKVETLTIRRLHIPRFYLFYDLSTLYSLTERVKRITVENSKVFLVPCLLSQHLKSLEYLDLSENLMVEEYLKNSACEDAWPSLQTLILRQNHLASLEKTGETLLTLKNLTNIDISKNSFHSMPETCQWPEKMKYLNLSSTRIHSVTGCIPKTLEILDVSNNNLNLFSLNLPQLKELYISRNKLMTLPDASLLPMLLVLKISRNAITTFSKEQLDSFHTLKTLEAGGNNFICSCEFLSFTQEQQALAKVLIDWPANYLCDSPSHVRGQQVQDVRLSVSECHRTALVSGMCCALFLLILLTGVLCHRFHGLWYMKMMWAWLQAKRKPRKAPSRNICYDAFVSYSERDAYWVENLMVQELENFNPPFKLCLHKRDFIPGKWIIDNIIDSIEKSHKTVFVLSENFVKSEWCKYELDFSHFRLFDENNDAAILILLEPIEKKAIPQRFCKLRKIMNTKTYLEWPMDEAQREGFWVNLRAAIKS

| SMILES | effect on P. gingivalis LPS 1690 stimulated proinflammatory cytokine production [1] | level of P. gingivalis induction of TLR-2 (TLR2) | level of E. coli induction of TLR-4 (TLR4; 100 ng/ml E. coli LPS, stannous 500 uM or higher (FIG. 3)) | reduction of P. gingivalis LPS activation on the TLR4 reporter system (TLR4; 3.2 mM (FIG. 5)) | reduction of P. gingivalis LPS activation on the TLR4 reporter system (TLR4; […] (FIG. 5)) | Displacement % (E. coli LPS) |
| --- | --- | --- | --- | --- | --- | --- |
| NC(=O)NCCC[C@H](N)C(=O)O [Citrulline] | inhibited | – | – | – | – | – |
| [F][Sn][F] [Tin (II) fluoride] | – | decreased | decreased | about 50% | about 50% | 12.69% |
